The text below walks through data of US10435388B2, “Selective inhibitors of clinically important mutants of the EGFR tyrosine kinase” (CS PHARMATECH LIMITED, priority 2016, dated 2019).

One experiment deals with PC9 cells (SM). Kind of experiment: PC-9 growth inhibition assay (cell proliferation), Method B. In kind it is cell-based, human. The conditions noted are these: Homo sapiens, PC-9, 72 h, cellular proliferation, several runs. The method, then:
(§1) Cell Proliferation Assays—Method B
(§2) Test compounds were dissolved in DMSO at 30 mM.
(§3) The final concentration was 1,000 cells/well. Add medium only as low control. […] 5% CO2 incubator for 72 hours.
(§4) After 72 hours incubation, remove the plates from incubator and equilibrate at room temperature for 15 minutes. Incubate the CellTiter Glo reagents (Promega, G9243) at 37° C. before the experiment. The buffer was equilibrated to room temperature and used to dissolve the substrate. To determine the cell viability, add 40 μL of CellTiter-Glo reagent into each well to be detected (at 1:1 to culture medium). Then the place the plates at room temperature for 30 min followed by read on EnSpire (PerkinElmer).
(§5) For estimation of IC50, the luminescence readout are transformed to % Inhibition by applying the following equation: The IC50 was then
(§6) [formula] calculated by fitting in XLFit to a four parameters logistic curve.
PC-9 Growth Inhibition Assay (Cell Proliferation).
The inhibition assay of PC-9 cells was conducted in the same manner as described above for H1975 cells.

The test system of another experiment is H1975 cells (DM). Kind of experiment: H1975 inhibition assay (cell proliferation), Method B. The note with it: Homo sapiens, NCI-H1975, 72 h, cellular proliferation, several runs. The class given is cell-based. The method, then: as §1
H1975 Inhibition Assay (Cell Proliferation).
as §2, §3, §4, §5, §6

The test system of a further experiment is A431 cells (WT). Kind of experiment: A431 inhibition assay (cell proliferation), Method B. The class given is cell-based, human. The conditions noted are these: Homo sapiens, A-431, 72 h, cellular proliferation, several runs. The method, then:
as §1
A431 Inhibition Assay, (Cell Proliferation).
The rest procedure was conducted in the same manner as described above for H1975 cells.

In general, IC50 refers to the point on the concentration scale where inhibition reaches its midpoint. High values mean lower potency, low ones higher potency. As for `C=CC(=O)Nc1cc(Nc2nccc(-n3cc(C(=O)NC)c4ncccc43)n2)c(OC)cc1N(C)CCN(C)C` [Example 51, N-Methyl 1-(2-(5-acrylamido-4-((2-(dimethylamino)ethyl)(methyl)amino)-2-methoxyphenylamino)pyrimidin-4-yl)-1H-pyrrolo[3,2-b]pyridine-3-carboxamide], the values for the IC50 in the experiment on PC9 cells (SM), in the experiment with H1975 cells (DM) and with A431 cells (WT) were 1.51 nM, 3.01 nM and 239 nM, respectively.

`C=CC(=O)Nc1cc(Nc2ncc(Cl)c(-n3nc(NC)c4ccccc43)n2)c(OC)cc1N(C)CCN(C)C` [Example 52, N-(5-(5-Chloro-4-(3-(methylamino)-1H-indazol-1-yl)pyrimidin-2-ylamino)-2-(N-(2-(dimethylamino)ethyl)-N-methylamino)-4-methoxyphenyl) acrylamide]: the IC50 with PC9 cells (SM) stood at 17.2 nM; in the experiment on H1975 cells (DM), 4.06 nM; in the experiment on A431 cells (WT) it was 325 nM.

Take `C=CC(=O)Nc1cc(Nc2nccc(-n3nc(NC(C)=O)c4ccccc43)n2)c(OC)cc1N(C)CCN(C)C` [Example 53, N-(5-(4-(3-Acetamido-1H-indazol-1-yl)pyrimidin-2-ylamino)-2-((2-(dimethylamino)ethyl)(methyl)amino)-4-methoxyphenyl) acrylamide]: the IC50 with PC9 cells (SM) turned out to be 3.09 nM; in the experiment with H1975 cells (DM) it was 6.23 nM; with A431 cells (WT) it was 82.5 nM.

Regarding `C=CC(=O)Nc1cc(Nc2nccc(-n3nc(Nc4ccccn4)c4ccccc43)n2)c(OC)cc1N(C)CCN(C)C` [Example 58, N-(5-(4-(3-(Pyridin-2-ylamino)-1H-indazol-1-yl)pyrimidin-2-ylamino)-2-(N-(2-(dimethylamino)ethyl)-N-methylamino)-4-methoxyphenyl) acrylamide], the IC50 in the experiment with PC9 cells (SM) came to 1.5 nM; in the experiment with H1975 cells (DM) it was 2.36 nM; in the experiment on A431 cells (WT), 1.46 nM.

For `C=CC(=O)Nc1cc(Nc2nccc(-n3nc(N4CCCC4)c4ccccc43)n2)c(OC)cc1N(C)CCN(C)C` [Example 59, N-(5-(4-(3-(Pyrrolidin-1-yl)-1H-indazol-1-yl)pyrimidin-2-ylamino)-2-(N-(2-(dimethylamino)ethyl)-N-methylamino)-4-methoxyphenyl) acrylamide], the IC50 worked out at 19.7 nM with PC9 cells (SM), 8.45 nM with H1975 cells (DM) and 716 nM in the experiment with A431 cells (WT).

On to `C=CC(=O)Nc1cc(Nc2nccc(-n3nc(N(C)CC)c4ccccc43)n2)c(OC)cc1N(C)CCN(C)C` [Example 60, N-(5-(4-(3-(N-Ethyl-N-methylamino)-1H-indazol-1-yl)pyrimidin-2-ylamino)-2-(N-(2-(dimethylamino)ethyl)-N-methylamino)-4-methoxyphenyl) acrylamide], for which the IC50 in the experiment with PC9 cells (SM) was determined as 11.2 nM; with H1975 cells (DM), 8.1 nM; in the experiment with A431 cells (WT), 545 nM.

Turning to `C=CC(=O)Nc1cc(Nc2nccc(-n3cc(-c4c[nH]nn4)c4ccccc43)n2)c(OC)cc1N(C)CCN(C)C` [Example 61, N-(5-(4-(3-(1H-1,2,3-Triazol-4-yl)-1H-indol-1-yl)pyrimidin-2-ylamino)-2-(N-(2-(dimethylamino)ethyl)-N-methylamino)-4-methoxyphenyl) acrylamide], the IC50 in the experiment with PC9 cells (SM) is 29.5 nM; in the experiment on H1975 cells (DM), 94 nM; in the experiment on A431 cells (WT) it was 1070 nM.

With `C=CC(=O)Nc1cc(Nc2nccc(-n3cc(S(=O)(=O)NC)c4ccccc43)n2)c(OC)cc1N(C)CCN(C)C` [Example 62], the IC50 is 0.94 nM in the experiment with PC9 cells (SM), 2.24 nM with H1975 cells (DM) and 43.9 nM in the experiment on A431 cells (WT).

Regarding `C=CC(=O)Nc1cc(Nc2ncc(Cl)c(-c3cnc(NC)c(C(C)=O)c3)n2)c(OC)cc1N(C)CCN(C)C` [Example 63], the concentration for half-maximal inhibition (IC50) was 5.79 nM with PC9 cells (SM), 3.03 nM in the experiment with H1975 cells (DM) and 528 nM with A431 cells (WT).

With `C=CC(=O)Nc1cc(Nc2nccc(-c3ccc(C(N)=O)c4[nH]ccc34)n2)c(OC)cc1N(C)CCN(C)C` [Example 64, 4-(2-(5-Acrylamido-4-((2-(dimethylamino)ethyl)(methyl)amino)-2-methoxyphenylamino)pyrimidin-4-yl)-1H-indole-7-carboxamide], the results for the IC50 in the experiment on PC9 cells (SM), in the experiment with H1975 cells (DM) and with A431 cells (WT) were 5.65 nM, 7.96 nM and 426 nM, respectively.

In the case of `C=CC(=O)Nc1cc(Nc2nccc(-n3nc(NC4CCOC4)c4ccccc43)n2)c(OC)cc1N(C)CCN(C)C` (stereo not drawn) [Example 65, N-(5-(4-(3-(Tetrahydrofuran-3-ylamino)-1H-indazol-1-yl)pyrimidin-2-ylamino)-2-(N-(2-(dimethylamino)ethyl)-N-methylamino)-4-methoxyphenyl) acrylamide], the IC50 came to 6.46 nM with PC9 cells (SM), 4.21 nM in the experiment on H1975 cells (DM) and 121 nM in the experiment with A431 cells (WT).

On to `C=CC(=O)Nc1cc(Nc2nccc(-n3nc(NCC4CC4)c4ccccc43)n2)c(OC)cc1N(C)CCN(C)C` [Example 66, N-(5-(4-(3-(Cyclopropylmethylamino)-1H-indazol-1-yl)pyrimidin-2-ylamino)-2-((2-(dimethylamino)ethyl)(methyl)amino)-4-methoxyphenyl) acrylamide], for which the IC50 with PC9 cells (SM) was 1.96 nM; in the experiment with H1975 cells (DM), 4.99 nM; in the experiment with A431 cells (WT), 6.04 nM.

`C=CC(=O)Nc1cc(Nc2nccc(-c3cc(C(N)=O)c4[nH]cc(C)c4c3)n2)c(OC)cc1N(C)CCN(C)C` [Example 68, 5-(2-(5-Acrylamido-4-((2-(dimethylamino)ethyl)(methyl)amino)-2-methoxyphenylamino)pyrimidin-4-yl)-3-methyl-1H-indole-7-carboxamide]: the values for the IC50 with PC9 cells (SM), in the experiment with H1975 cells (DM) and in the experiment with A431 cells (WT) were 2.37 nM, 0.86 nM and 264 nM, respectively.

With `C=CC(=O)Nc1cc(Nc2nccc(-n3nc(NC4CC4)c4ccccc43)n2)c(OC)cc1N(C)CCN(C)C` [Example 69, N-(5-(4-(3-(cyclopropylamino)-1H-indazol-1-yl)pyrimidin-2-ylamino)-2-((2-(dimethylamino)ethyl)(methyl)amino)-4-methoxyphenyl) acrylamide], the IC50 worked out at 1.92 nM with PC9 cells (SM), 3.55 nM in the experiment with H1975 cells (DM) and 71.2 nM in the experiment on A431 cells (WT).

Consider `C=CC(=O)Nc1cc(Nc2nccc(-n3nc(N(C)C)c4ccccc43)n2)c(OC(C)C)nc1N(C)CCN(C)C` [Example 70, N-(5-((4-(3-(dimethylamino)-1H-indazol-1-yl)pyrimidin-2-yl)amino)-2-((2-(dimethylamino)ethyl)(methyl)amino)-6-isopropoxypyridin-3-yl) acrylamide], for which the results for the IC50 in the experiment with PC9 cells (SM), in the experiment with H1975 cells (DM) and with A431 cells (WT) were 2.27 nM, 9.11 nM and 812 nM, respectively.

With `C=CC(=O)Nc1cc(Nc2nccc(-n3nc(N(C)C)c4ccccc43)n2)c(OCC(F)F)nc1N(C)CCN(C)C` [Example 71], the results for the IC50 with PC9 cells (SM), in the experiment with H1975 cells (DM) and with A431 cells (WT) were 2.45 nM, 3.29 nM and 480 nM, respectively.

For the compound `C=CC(=O)Nc1cc(Nc2nccc(-n3nc(N(C)C)c4ccccc43)n2)c(OC)nc1N(C)CCN(C)C` [Example 72, N-(5-((4-(3-(Dimethylamino)-1H-indazol-1-yl)pyrimidin-2-yl)amino)-2-((2-(dimethylamino)ethyl)(methyl)amino)-6-methoxypyridin-3-yl) acrylamide], the IC50 in the experiment with PC9 cells (SM) came to 5.88 nM; in the experiment with H1975 cells (DM), 8.55 nM; in the experiment on A431 cells (WT), 912 nM.

`C=CC(=O)Nc1cc(Nc2ncc(Cl)c(-n3cc(C(C)=O)c4ccccc43)n2)c(OC)cc1N(C)CCN(C)C` [Example 73, N-(5-(4-(3-Acetyl-1H-indol-1-yl)-5-chloropyrimidin-2-ylamino)-2-((2-(dimethylamino)ethyl)(methyl)amino)-4-methoxyphenyl) acrylamide]: the IC50 in the experiment on PC9 cells (SM) was 3.28 nM; in the experiment with H1975 cells (DM), 12.6 nM; in the experiment on A431 cells (WT), 426 nM.

With `C=CC(=O)Nc1cc(Nc2nccc(-n3cc(-c4ccn[nH]4)c4ccccc43)n2)c(OC)cc1N(C)CCN(C)C` [Example 74, N-(5-((4-(3-(1H-Pyrazol-3-yl)-1H-indol-1-yl)pyrimidin-2-yl)amino)-2-((2-(dimethylamino)ethyl)(methyl)amino)-4-methoxyphenyl) acrylamide], the results for the IC50 in the experiment on PC9 cells (SM), in the experiment on H1975 cells (DM) and in the experiment on A431 cells (WT) were 5.74 nM, 28 nM and 396 nM, respectively.

For `C=CC(=O)Nc1cc(Nc2nccc(-n3cc(-c4cn[nH]c4)c4ccccc43)n2)c(OC)cc1N(C)CCN(C)C` [Example 75, N-(5-((4-(3-(1H-Pyrazol-4-yl)-1H-indol-1-yl)pyrimidin-2-yl)amino)-2-((2-(dimethylamino)ethyl)(methyl)amino)-4-methoxyphenyl) acrylamide], the IC50 was 27.9 nM in the experiment with PC9 cells (SM), 89.5 nM with H1975 cells (DM) and 439 nM in the experiment on A431 cells (WT).

With `C=CC(=O)Nc1cc(Nc2nccc(-n3cc(-c4ccn[nH]4)c4ncccc43)n2)c(OC)cc1N(C)CCN(C)C` [Example 76, N-(5-((4-(3-(1H-Pyrazol-5-yl)-1H-pyrrolo[3,2-b]pyridin-1-yl)pyrimidin-2-yl)amino)-2-((2-(dimethylamino)ethyl)(methyl)amino)-4-methoxyphenyl) acrylamide], the IC50 in the experiment with PC9 cells (SM) was determined as 3.33 nM; in the experiment with H1975 cells (DM), 2.27 nM; in the experiment on A431 cells (WT) it was 152 nM.
